A value given as a limit tells only on which side of the number the result lay.

One test concerns the target BRM (Homo sapiens, UniProt P51531). The test can be described thus: ATPase catalytic activity of BRM (ADP-Glo in vitro biochemical assay). Particulars: for BRM Max % Inhibition: Table 6. On the technique in general: In ADP-Glo the light output rises with the ADP produced.
Another test addresses BRG-1 (Homo sapiens, UniProt P51532). The test can be described thus: ATPase catalytic activity of BRG-1 (ADP-Glo in vitro biochemical assay). The conditions noted are these: for BRG1 Max % Inhibition: Table 6.

Sequence of BRG-1 (P51532 whole entry): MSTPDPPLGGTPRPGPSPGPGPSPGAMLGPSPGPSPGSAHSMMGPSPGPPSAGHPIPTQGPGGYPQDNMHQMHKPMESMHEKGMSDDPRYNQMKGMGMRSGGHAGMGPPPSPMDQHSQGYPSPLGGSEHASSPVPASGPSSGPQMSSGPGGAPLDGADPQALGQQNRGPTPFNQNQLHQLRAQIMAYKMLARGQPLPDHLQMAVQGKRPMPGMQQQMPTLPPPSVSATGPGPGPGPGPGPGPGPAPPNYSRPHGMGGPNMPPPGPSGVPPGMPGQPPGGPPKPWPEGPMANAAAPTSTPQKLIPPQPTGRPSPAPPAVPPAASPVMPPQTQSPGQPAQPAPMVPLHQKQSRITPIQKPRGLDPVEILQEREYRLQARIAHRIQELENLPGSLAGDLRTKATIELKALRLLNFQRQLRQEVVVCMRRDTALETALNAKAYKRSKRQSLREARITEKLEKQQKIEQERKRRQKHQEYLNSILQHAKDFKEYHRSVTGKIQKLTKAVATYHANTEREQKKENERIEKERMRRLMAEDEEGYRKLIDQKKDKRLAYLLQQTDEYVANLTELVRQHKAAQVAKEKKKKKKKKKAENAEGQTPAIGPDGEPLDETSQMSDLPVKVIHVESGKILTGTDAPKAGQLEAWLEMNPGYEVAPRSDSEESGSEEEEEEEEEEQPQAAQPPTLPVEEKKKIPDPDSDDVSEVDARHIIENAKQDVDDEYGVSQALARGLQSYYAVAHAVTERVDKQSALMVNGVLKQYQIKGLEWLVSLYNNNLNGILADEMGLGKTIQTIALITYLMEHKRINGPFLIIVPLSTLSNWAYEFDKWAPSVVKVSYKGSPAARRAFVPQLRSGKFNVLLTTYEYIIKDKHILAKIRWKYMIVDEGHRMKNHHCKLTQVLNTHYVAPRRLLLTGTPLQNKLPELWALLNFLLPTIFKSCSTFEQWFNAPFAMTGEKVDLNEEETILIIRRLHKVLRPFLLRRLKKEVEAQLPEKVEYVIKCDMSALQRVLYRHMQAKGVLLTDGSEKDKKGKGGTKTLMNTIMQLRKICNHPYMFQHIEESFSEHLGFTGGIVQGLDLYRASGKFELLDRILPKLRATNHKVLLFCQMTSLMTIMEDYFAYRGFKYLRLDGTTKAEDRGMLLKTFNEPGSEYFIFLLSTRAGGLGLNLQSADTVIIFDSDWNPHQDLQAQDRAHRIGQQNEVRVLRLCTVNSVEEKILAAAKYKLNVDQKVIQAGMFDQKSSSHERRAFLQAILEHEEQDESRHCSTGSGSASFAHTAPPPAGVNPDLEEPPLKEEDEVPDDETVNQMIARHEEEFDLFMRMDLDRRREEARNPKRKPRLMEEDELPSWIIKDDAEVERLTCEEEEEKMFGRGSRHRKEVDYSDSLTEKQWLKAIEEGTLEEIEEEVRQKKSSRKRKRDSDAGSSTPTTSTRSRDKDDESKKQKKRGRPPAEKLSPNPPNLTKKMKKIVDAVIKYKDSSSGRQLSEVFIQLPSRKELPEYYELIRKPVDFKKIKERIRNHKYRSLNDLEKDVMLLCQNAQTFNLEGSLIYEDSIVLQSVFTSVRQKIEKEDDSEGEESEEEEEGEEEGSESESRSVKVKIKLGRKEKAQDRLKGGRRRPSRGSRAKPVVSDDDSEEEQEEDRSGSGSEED
Sequence of BRM (P51531 whole entry): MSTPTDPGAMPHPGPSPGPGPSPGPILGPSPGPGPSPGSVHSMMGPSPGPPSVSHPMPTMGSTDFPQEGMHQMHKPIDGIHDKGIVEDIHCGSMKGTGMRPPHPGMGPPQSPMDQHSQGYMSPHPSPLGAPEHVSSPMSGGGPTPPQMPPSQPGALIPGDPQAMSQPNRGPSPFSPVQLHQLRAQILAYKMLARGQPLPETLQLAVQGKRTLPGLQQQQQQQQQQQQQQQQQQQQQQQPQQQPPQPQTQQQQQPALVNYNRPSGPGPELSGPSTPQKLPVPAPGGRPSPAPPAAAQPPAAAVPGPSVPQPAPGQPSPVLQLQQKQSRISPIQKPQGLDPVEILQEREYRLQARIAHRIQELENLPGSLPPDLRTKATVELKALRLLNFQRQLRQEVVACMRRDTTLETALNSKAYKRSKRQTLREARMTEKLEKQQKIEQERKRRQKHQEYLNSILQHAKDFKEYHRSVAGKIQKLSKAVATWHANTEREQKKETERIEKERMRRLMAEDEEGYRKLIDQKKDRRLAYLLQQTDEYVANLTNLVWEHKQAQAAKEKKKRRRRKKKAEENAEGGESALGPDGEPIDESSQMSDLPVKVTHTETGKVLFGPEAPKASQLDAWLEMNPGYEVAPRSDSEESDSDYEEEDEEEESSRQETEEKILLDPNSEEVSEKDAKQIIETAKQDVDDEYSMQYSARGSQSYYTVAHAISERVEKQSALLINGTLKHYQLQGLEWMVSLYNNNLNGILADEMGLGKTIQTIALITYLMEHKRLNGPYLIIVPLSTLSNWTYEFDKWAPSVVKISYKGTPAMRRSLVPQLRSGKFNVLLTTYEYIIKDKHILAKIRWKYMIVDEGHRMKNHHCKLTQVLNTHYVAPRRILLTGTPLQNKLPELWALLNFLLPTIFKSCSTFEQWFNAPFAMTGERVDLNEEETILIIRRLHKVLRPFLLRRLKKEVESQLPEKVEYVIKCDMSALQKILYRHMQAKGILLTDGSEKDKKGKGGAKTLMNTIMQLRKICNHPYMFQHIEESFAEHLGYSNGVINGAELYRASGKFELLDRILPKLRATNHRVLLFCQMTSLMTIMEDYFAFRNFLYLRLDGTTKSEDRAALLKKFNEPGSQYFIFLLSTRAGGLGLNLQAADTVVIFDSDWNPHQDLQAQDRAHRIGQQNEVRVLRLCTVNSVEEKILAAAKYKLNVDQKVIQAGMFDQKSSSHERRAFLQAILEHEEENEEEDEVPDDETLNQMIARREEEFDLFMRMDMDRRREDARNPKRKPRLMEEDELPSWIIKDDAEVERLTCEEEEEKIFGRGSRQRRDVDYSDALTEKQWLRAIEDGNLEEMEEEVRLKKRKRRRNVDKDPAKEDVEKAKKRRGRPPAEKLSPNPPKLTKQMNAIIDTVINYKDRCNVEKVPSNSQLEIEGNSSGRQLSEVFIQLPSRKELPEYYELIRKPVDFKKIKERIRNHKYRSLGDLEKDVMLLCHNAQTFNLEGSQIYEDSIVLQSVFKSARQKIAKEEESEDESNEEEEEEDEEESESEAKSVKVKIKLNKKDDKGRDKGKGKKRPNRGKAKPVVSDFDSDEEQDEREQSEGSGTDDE

In general, IC50 refers to the concentration needed to halve the response being measured. Lower therefore signals inhibition by little substance. As to `Nc1ccc(C(=O)NCC(=O)Nc2nc(-c3cccc(-c4ccn(C5CCOCC5)n4)c3)cs2)cc1` [Compound 162, 4-amino-N-(2-oxo-2-((4-(3-(1-(tetrahydro-2H-pyran-4-yl)-1H-pyrazol-3-yl)phenyl)thiazol-2-yl)amino)ethyl)benzamide], on BRM, the IC50 is less than 100 nM and the “BRM Max % Inhibition” value is on record as greater than 95%. For the same compound, on BRG-1, the IC50 is less than 100 nM and the “BRG1 Max % Inhibition” value is on record as greater than 95%.

In the case of `NCCOc1cc(-c2cccc(-c3csc(NC(=O)CNC(=O)c4ccc(N)cc4)n3)c2)ccn1` [Compound 163, 4-amino-N-(2-((4-(3-(2-(2-aminoethoxy)pyridin-4-yl)phenyl)thiazol-2-yl)amino)-2-oxoethyl)benzamide], on BRM, the IC50 was less than 100 nM and the “BRM Max % Inhibition” value was greater than 95%. In addition, on BRG-1, the 50% inhibitory concentration (IC50) fell in the range of 100 to 1000 nM and the “BRG1 Max % Inhibition” value is recorded as greater than 95%.

For the compound `NCc1cc(-c2cccc(-c3csc(NC(=O)CNC(=O)c4ccc(N)cc4)n3)c2)ccn1` [Compound 164, 4-amino-N-(2-((4-(3-(2-(aminomethyl)pyridin-4-yl)phenyl)thiazol-2-yl)amino)-2-oxoethyl)benzamide], at BRM, the IC50 is less than 100 nM and the “BRM Max % Inhibition” value was greater than 95%. Moreover, at BRG-1, the IC50 was less than 100 nM and the “BRG1 Max % Inhibition” value is recorded as greater than 95%.

On to `Nc1ccc(C(=O)NCC(=O)Nc2nc(-c3cccc(-c4ccnc(CO)c4)c3)cs2)cc1` [Compound 165, 4-amino-N-(2-((4-(3-(2-(hydroxymethyl)pyridin-4-yl)phenyl)thiazol-2-yl)amino)-2-oxoethyl)benzamide], for which, on BRM, the IC50 was less than 100 nM and the “BRM Max % Inhibition” value is greater than 95%. Further, on BRG-1, the IC50 was less than 100 nM and the “BRG1 Max % Inhibition” value was greater than 95%.

For the compound `NCCn1ccc(-c2cccc(-c3csc(NC(=O)CNC(=O)c4ccc(N)cc4)n3)c2)cc1=O` [Compound 166, 4-amino-N-(2-((4-(3-(1-(2-aminoethyl)-2-oxo-1,2-dihydropyridin-4-yl)phenyl)thiazol-2-yl)amino)-2-oxoethyl)benzamide], at BRM, the IC50 fell in the range of 100 to 1000 nM and the “BRM Max % Inhibition” value is greater than 95%. Moreover, at BRG-1, the IC50 lay in the range of 100 to 1000 nM and the “BRG1 Max % Inhibition” value was greater than 95%.

For `CN(C)CCn1ccc2ccc(-c3csc(NC(=O)CNC(=O)c4ccc(N)cc4)n3)cc2c1=O` [Compound 167, 4-amino-N-(2-((4-(2-(2-(dimethylamino)ethyl)-1-oxo-1,2-dihydroisoquinolin-7-yl)thiazol-2-yl)amino)-2-oxoethyl)benzamide], at BRM, the IC50 is 100 to 1000 nM and the “BRM Max % Inhibition” value is greater than 95%. For the same compound, at BRG-1, the IC50 was in the range of 100 to 1000 nM and the “BRG1 Max % Inhibition” value is greater than 95%.

As for `CN(C)Cc1cc(-c2cccc(-c3csc(NC(=O)CNC(=O)c4ccc(N)cc4)n3)c2)ccn1` [Compound 168, 4-amino-N-(2-((4-(3-(2-((dimethylamino)methyl)pyridin-4-yl)phenyl)thiazol-2-yl)amino)-2-oxoethyl)benzamide], on BRM, the IC50 was less than 100 nM and the “BRM Max % Inhibition” value is on record as greater than 95%. Further, on BRG-1, the half-inhibitory concentration (IC50) was less than 100 nM and the “BRG1 Max % Inhibition” value was greater than 95%.

For the compound `NCC1CCC(c2cccc(-c3csc(NC(=O)CNC(=O)c4ccc(N)cc4)n3)c2)CC1` (centres unmarked) [Compound 169, 4-amino-N-(2-((4-(3-(4-(aminomethyl)cyclohexyl)phenyl)thiazol-2-yl)amino)-2-oxoethyl)benzamide], on BRM, the IC50 is 100 to 1000 nM and the “BRM Max % Inhibition” value is greater than 95%. On BRG-1, the IC50 was 100 to 1000 nM and the “BRG1 Max % Inhibition” value is given as greater than 95%.

With `CN(C)CCn1cc(-c2cccc(-c3csc(NC(=O)CNC(=O)c4ccc(N)cc4)n3)c2)ccc1=O` [Compound 170, 4-amino-N-(2-((4-(3-(1-(2-(dimethylamino)ethyl)-6-oxo-1,6-dihydropyridin-3-yl)phenyl)thiazol-2-yl)amino)-2-oxoethyl)benzamide], at BRM, the IC50 lay within 100 to 1000 nM and the “BRM Max % Inhibition” value is listed as greater than 95%. At BRG-1, the IC50 was in the range of 100 to 1000 nM and the “BRG1 Max % Inhibition” value is greater than 95%.

For `NCCn1ccc2ccc(-c3csc(NC(=O)CNC(=O)c4ccc(N)cc4)n3)cc2c1=O` [Compound 171, 4-amino-N-(2-((4-(2-(2-aminoethyl)-1-oxo-1,2-dihydroisoquinolin-7-yl)thiazol-2-yl)amino)-2-oxoethyl)benzamide], on BRM, the IC50 fell in the range of 100 to 1000 nM and the “BRM Max % Inhibition” value was greater than 95%. Moreover, at BRG-1, the IC50 lay within 100 to 1000 nM and the “BRG1 Max % Inhibition” value is greater than 95%.

Turning to `Nc1ccc(C(=O)N[C@@H](CO)C(=O)Nc2nc(-c3cccc(-c4ccncc4)c3)cs2)cc1` [Compound 172, (S)-4-amino-N-(3-hydroxy-1-oxo-1-((4-(3-(pyridin-4-yl)phenyl)thiazol-2-yl)amino)propan-2-yl)benzamide], on BRM, the IC50 is 100 to 1000 nM and the “BRM Max % Inhibition” value is greater than 95%. Besides, on BRG-1, the IC50 is 100 to 1000 nM and the “BRG1 Max % Inhibition” value is greater than 90%.

With `Nc1ccc(C(=O)NCC(=O)Nc2nc(C3CCCN(c4cccnc4)C3)cs2)cc1` (centres unmarked) [Compound 173, 4-amino-N-(2-oxo-2-((4-(1-(pyridin-3-yl)piperidin-3-yl)thiazol-2-yl)amino)ethyl)benzamide], at BRM, the IC50 fell in the range of 100 to 1000 nM and the “BRM Max % Inhibition” value is listed as greater than 90%. Further, on BRG-1, the IC50 lay within 100 to 1000 nM and the “BRG1 Max % Inhibition” value is reported as greater than 90%.

Take `NC[C@H]1CC[C@H](c2cccc(-c3csc(NC(=O)CNC(=O)c4ccc(N)cc4)n3)c2)CC1` [Compound 174, 4-amino-N-(2-((4-(3-((1r,4r)-4-(aminomethyl)cyclohexyl)phenyl)thiazol-2-yl)amino)-2-oxoethyl)benzamide]: on BRM, the IC50 was 100 to 1000 nM and the “BRM Max % Inhibition” value is greater than 80%. On BRG-1, the IC50 was 100 to 1000 nM and the “BRG1 Max % Inhibition” value was greater than 80%.

Take `NC[C@H]1CC[C@@H](c2cccc(-c3csc(NC(=O)CNC(=O)c4ccc(N)cc4)n3)c2)CC1` [Compound 175, 4-amino-N-(2-((4-(3-((1s,4s)-4-(aminomethyl)cyclohexyl)phenyl)thiazol-2-yl)amino)-2-oxoethyl)benzamide]: on BRM, the IC50 lay in the range of 100 to 1000 nM and the “BRM Max % Inhibition” value is given as greater than 90%. At BRG-1, the IC50 is 100 to 1000 nM and the “BRG1 Max % Inhibition” value is on record as greater than 80%.

For the compound `Nc1ccc(C(=O)NCC(=O)Nc2nc(-c3cccc(-c4cnn(CC(=O)O)c4)c3)cs2)cc1` [Compound 176, 2-(4-(3-(2-(2-(4-aminobenzamido)acetamido)thiazol-4-yl)phenyl)-1H-pyrazol-1-yl)acetic acid], on BRM, the IC50 lay within 100 to 1000 nM and the “BRM Max % Inhibition” value was greater than 90%. Besides, at BRG-1, the IC50 fell in the range of 100 to 1000 nM and the “BRG1 Max % Inhibition” value is recorded as greater than 80%.

Take `COC(=O)Cc1cc(-c2cccc(-c3csc(NC(=O)CNC(=O)c4ccc(N)cc4)n3)c2)ccn1` [Compound 177, methyl 2-(4-(3-(2-(2-(4-aminobenzamido)acetamido)thiazol-4-yl)phenyl)pyridin-2-yl)acetate]: on BRM, the IC50 was less than 100 nM and the “BRM Max % Inhibition” value is listed as greater than 95%. Moreover, at BRG-1, the IC50 was less than 100 nM and the “BRG1 Max % Inhibition” value is reported as greater than 95%.

As to `COCC[C@H](NC(=O)c1ccc(N)cc1)C(=O)Nc1nc(-c2cccc(-c3ccncc3)c2)cs1` [Compound 178, (S)-4-amino-N-(4-methoxy-1-oxo-1-((4-(3-(pyridin-4-yl)phenyl)thiazol-2-yl)amino)butan-2-yl)benzamide], on BRM, the 50% inhibitory concentration (IC50) was less than 100 nM and the “BRM Max % Inhibition” value is greater than 95%. At BRG-1, the concentration for half-maximal inhibition (IC50) was less than 100 nM and the “BRG1 Max % Inhibition” value is on record as greater than 95%.

`Nc1ccc(C(=O)NCC(=O)Nc2nc(-c3cccc(N4CCOCC4)c3)cs2)cc1` [Compound 179, 4-amino-N-(2-((4-(3-morpholinophenyl)thiazol-2-yl)amino)-2-oxoethyl)benzamide]: on BRM, the IC50 was 100 to 1000 nM and the “BRM Max % Inhibition” value is reported as greater than 90%. For the same compound, on BRG-1, the IC50 is 100 to 1000 nM and the “BRG1 Max % Inhibition” value is reported as greater than 95%.

As for `COC(=O)Cn1cc(-c2cccc(-c3csc(NC(=O)CNC(=O)c4ccc(N)cc4)n3)c2)cn1` [Compound 180, methyl 2-(4-(3-(2-(2-(4-aminobenzamido)acetamido)thiazol-4-yl)phenyl)-1H-pyrazol-1-yl)acetate], at BRM, the IC50 was in the range of 100 to 1000 nM and the “BRM Max % Inhibition” value is reported as greater than 90%. Further, on BRG-1, the IC50 was 100 to 1000 nM and the “BRG1 Max % Inhibition” value is listed as greater than 95%.

As for `COC(=O)c1cc(-c2cccc(-c3csc(NC(=O)CNC(=O)c4ccc(N)cc4)n3)c2)ccn1` [Compound 181, methyl 4-(3-(2-(2-(4-aminobenzamido)acetamido)thiazol-4-yl)phenyl)picolinate], on BRM, the IC50 is less than 100 nM and the “BRM Max % Inhibition” value is greater than 95%. Also, at BRG-1, the IC50 is less than 100 nM and the “BRG1 Max % Inhibition” value is given as greater than 95%.

Regarding `COC(=O)C(C)(C)c1cc(-c2cccc(-c3csc(NC(=O)CNC(=O)c4ccc(N)cc4)n3)c2)ccn1` [Compound 182, methyl 2-(4-(3-(2-(2-(4-aminobenzamido)acetamido)thiazol-4-yl)phenyl)pyridin-2-yl)-2-methylpropanoate], at BRM, the IC50 is less than 100 nM and the “BRM Max % Inhibition” value was greater than 95%. In addition, on BRG-1, the IC50 fell in the range of 100 to 1000 nM and the “BRG1 Max % Inhibition” value was greater than 90%.

Regarding `CC(=O)N(C)c1cc(-c2cccc(-c3csc(NC(=O)CNC(=O)c4ccc(N)cc4)n3)c2)ccn1` [Compound 183, 4-amino-N-(2-((4-(3-(2-(N-methylacetamido)pyridin-4-yl)phenyl)thiazol-2-yl)amino)-2-oxoethyl)benzamide], at BRM, the IC50 is less than 100 nM and the “BRM Max % Inhibition” value is greater than 95%. Also, on BRG-1, the IC50 is less than 100 nM and the “BRG1 Max % Inhibition” value is greater than 95%.

For the compound `Nc1ccc(C(=O)NCC(=O)Nc2nc(-c3cccc(-c4ccncc4)c3)cs2)nc1` [Compound 184, 5-amino-N-(2-oxo-2-((4-(3-(pyridin-4-yl)phenyl)thiazol-2-yl)amino)ethyl)picolinamide], on BRM, the IC50 is less than 100 nM and the “BRM Max % Inhibition” value was greater than 80%. For the same compound, on BRG-1, the IC50 is less than 100 nM and the “BRG1 Max % Inhibition” value is recorded as greater than 70%.

These data come from US11497752B2, “Compounds and uses thereof” (Foghorn Therapeutics Inc., priority 2018, dated 2022).
